We go through three compounds from US12233045B2, “Therapeutic agent for treating bradyarrhythmia” (OSAKA UNIVERSITY, priority 2018, dated 2025).

In assay [1] the target is T1, KCNJ3 WT KACh channel (Homo sapiens, UniProt P48544+P48549).
T1 construct: expressed in transfected cells; host or cells: Xenopus laevis oocytes (cRNA injection)
T1 sequence (P48549 1-501): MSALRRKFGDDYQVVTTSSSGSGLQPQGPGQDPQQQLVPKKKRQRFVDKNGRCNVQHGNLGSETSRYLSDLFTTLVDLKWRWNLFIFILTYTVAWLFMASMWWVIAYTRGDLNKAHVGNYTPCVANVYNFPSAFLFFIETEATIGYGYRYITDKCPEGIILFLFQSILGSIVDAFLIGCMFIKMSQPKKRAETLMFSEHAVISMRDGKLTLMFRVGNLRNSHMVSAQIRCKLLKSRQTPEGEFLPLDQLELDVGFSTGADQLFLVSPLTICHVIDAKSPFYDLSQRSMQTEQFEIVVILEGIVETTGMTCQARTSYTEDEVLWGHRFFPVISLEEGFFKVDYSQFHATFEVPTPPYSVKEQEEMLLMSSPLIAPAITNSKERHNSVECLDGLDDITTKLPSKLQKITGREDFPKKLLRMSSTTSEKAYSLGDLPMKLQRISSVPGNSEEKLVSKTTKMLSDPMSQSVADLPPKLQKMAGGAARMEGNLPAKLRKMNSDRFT
T1 sequence (P48544 1-419): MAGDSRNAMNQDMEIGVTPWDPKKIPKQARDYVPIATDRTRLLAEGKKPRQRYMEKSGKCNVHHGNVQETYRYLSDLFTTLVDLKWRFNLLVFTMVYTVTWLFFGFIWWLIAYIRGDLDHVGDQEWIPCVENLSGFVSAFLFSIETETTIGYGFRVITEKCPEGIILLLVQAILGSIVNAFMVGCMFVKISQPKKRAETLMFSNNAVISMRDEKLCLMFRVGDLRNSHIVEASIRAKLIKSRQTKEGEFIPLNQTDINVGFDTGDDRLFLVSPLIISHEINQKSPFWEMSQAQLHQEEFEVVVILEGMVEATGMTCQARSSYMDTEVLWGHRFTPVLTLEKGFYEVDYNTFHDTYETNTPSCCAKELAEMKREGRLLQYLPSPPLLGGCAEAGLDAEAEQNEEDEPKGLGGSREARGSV
As to conditions: literature (Jin W, Lu Z. Biochemistry 1999); cited from earlier work.

Assay [2] concerns KCNJ3 N83H mutant zebrafish. As to the kind of experiment: transgenic zebrafish model, heart rate and pulsation rhythm analysis (KCNJ3 N83H). In kind it is in vivo, zebrafish (Danio rerio). As to conditions: for effect on sinus arrest / atrioventricular block caused by the N83H mutation: 100 nM, 1 hour after application; for effect on heart rate and bradyarrhythmia: 100 nM in 0.03% sea salt aqueous solution, after 1 hour, 2 day old fry. How it is done: (§1) As a comparative example, zebrafish for KCNJ3 WT expression was also prepared in the same manner.
Transgenic zebrafish was prepared by a transposon transfer system using transposon Tol2. Since the cardiac KACh channel was expressed in the sinoatrial node, atrioventricular node, and atrial muscle, a gene construct in which three genes of mCherry were linked with a 2A peptide was prepared so that human KCNJ3 WT or N83H and human KCNJ5, and additionally gene introduction thereof were able to be determined under a fluorescence microscope under the control of the atrial myosin heavy chain (amhc) promoter, which expressed a target gene in zebrafish in an atrial-specific manner (FIG. 3). Next, a small amount of mRNA of the transposase encoded by Tol2 gene and this construct were simultaneously injected into the fertilized egg. When the adult fish prepared in this manner were crossed with wild type zebrafish, fish whose germline transmission was confirmed by generating fry positive for mCherry in the atrium under a fluorescence microscope were used as an F0 founder. When this F0 founder was crossed with wild type zebrafish hspGFF3A, which expressed GFP in both the ventricle and the atrium (Proceedings of the National Academy of Sciences of the United States of America. 2008; 105:1255-1260.), the heart rate and the heart pulsation rhythm were analyzed using 2 day old F1 transgenic zebrafish fry which expressed GFP in the ventricle and GFP and mCherry in the atrium (FIG. 4). Specifically, zebrafish fry was fixed on a glass bottom dish with a diameter of 35 mm with a 0.5% low-melting-point agarose gel, and the fry heart in a 0.03% sea salt aqueous solution was observed under a fluorescence microscope. Based on the video of the heart beat acquired by the camera attached to the fluorescence microscope, detailed analysis of the heart rate and pulsation rhythm was performed using original M mode analysis software (The Journal of clinical investigation. 2007, 117:2812-2824.). The heart rate was measured by the pulsation of the sinus venosus part including the sinus node. Since the expression level of mCherry in the atrium was not different between KCNJ3 WT zebrafish and KCNJ3 N83H mutant zebrafish, the expression level of the KACh channel gene was considered to be the same in both cases. In the KCNJ3 N83H mutant zebrafish, significant atrial enlargement and a bradyarrhythmia phenotype similar to human cases (sinus arrest, sinus bradycardia, sinoatrial block, atrioventricular block) were observed (FIG. 5). Next, the 0.03% sea salt aqueous solution was replaced with a 0.03% sea salt aqueous solution containing the 100 nM compound (II), and the heart beat after 1 hour was analyzed in the same manner.

Assay [3] deals with T1, KCNJ3 WT KACh channel. As to the kind of experiment: two-electrode voltage clamp, KACh channel expressed in Xenopus laevis oocytes (wild type). In kind it is cell-based. An excerpt:
(§2) By co-expressing with […] subunits of G protein, a whole cell current was able to be directly measured via the activated KACh channel.
The coding sequence of human KCNJ3 WT was obtained by amplifying a human KCNJ3 cDNA clone (commercially available from Invitrogen) by PCR, and subcloning it into a pCS2+ vector (commercially available from Addgene). The c.247A>C mutation providingKCNJ3 N83H was introduced by site-directed mutagenesis through PCR. Similarly, the human KCNJ5 coding sequence was obtained by amplifying a human KCNJ5 cDNA clone (commercially available from Invitrogen) by PCR and subcloning it into a pCS2+ vector. […]
The whole cell current via the expressed KACh channel was measured by a two-electrode voltage clamp method using a GeneClamp 500 amplifier (commercially available from Molecular Devices). […] The perfusate containing the compound (II) with a low concentration was added when the amount of current was almost steady, and the amount of current was then recorded while replacing it with a perfusate with a high concentration in the same manner. When the recording was ended, Ba^2+ (3 mM) was added, and the intrinsic leak current was measured. The measured data was analyzed using Clampfit 10.2 (commercially available from Molecular Devices). The IC50 value was calculated using GraphPad Prism version 5.00 (commercially available from GraphPad Software).
(In general: Two-electrode voltage clamp is typically applied to oocytes expressing channels or transporters.)

A further assay has as its system KCNJ3 WT zebrafish. The experiment in a line: transgenic zebrafish model, heart rate analysis (KCNJ3 WT). Type of assay: in vivo, zebrafish (Danio rerio). As to conditions: 100 nM, after 1 hour. How it is done:
as §1
Transgenic zebrafish was prepared by a transposon transfer system using transposon Tol2. Since the cardiac KACh channel was expressed in the sinoatrial node, atrioventricular node, and atrial muscle, a gene construct in which three genes of mCherry were linked with a 2A peptide was prepared so that human KCNJ3 WT or N83H and human KCNJ5, and additionally gene introduction thereof were able to be determined under a fluorescence microscope under the control of the atrial myosin heavy chain (amhc) promoter, which expressed a target gene in zebrafish in an atrial-specific manner (FIG. 3). […] When the adult fish prepared in this manner were crossed with wild type zebrafish, fish whose germline transmission was confirmed by generating fry positive for mCherry in the atrium under a fluorescence microscope were used as an F0 founder. When this F0 founder was crossed with wild type zebrafish hspGFF3A, which expressed GFP in both the ventricle and the atrium (Proceedings of the National Academy of Sciences of the United States of America. 2008; 105:1255-1260.), the heart rate and the heart pulsation rhythm were analyzed using 2 day old F1 transgenic zebrafish fry which expressed GFP in the ventricle and GFP and mCherry in the atrium (FIG. 4). […]

In another assay the target is T2, KCNJ3 N83H KACh channel (Homo sapiens, UniProt P48544+P48549, N83H).
T2 construct: expressed in transfected cells; host or cells: Xenopus laevis oocytes (cRNA injection)
T2 sequence (P48549 1-501 N83H): T1 sequence (P48549 1-501) with N83H
T2 sequence (P48544 1-419): T1 sequence (P48544 1-419)
The experiment in a line: two-electrode voltage clamp, KACh channel expressed in Xenopus laevis oocytes (N83H mutant). As to conditions: for inhibition of the N83H mutant compared with the WT KACh channel: N83H vs WT; for inhibitory effect on the KCNJ3 N83H KACh channel: two-electrode voltage clamp. In kind it is cell-based.
Source text: as §2
The coding sequence of human KCNJ3 WT was obtained by amplifying a human KCNJ3 cDNA clone (commercially available from Invitrogen) by PCR, and subcloning it into a pCS2+ vector (commercially available from Addgene). The c.247A>C mutation providingKCNJ3 N83H was introduced by site-directed mutagenesis through PCR. Similarly, the human KCNJ5 coding sequence was obtained by amplifying a human KCNJ5 cDNA clone (commercially available from Invitrogen) by PCR and subcloning it into a pCS2+ vector. The cRNAs of KCNJ3 WT, KCNJ3 N83H and KCNJ5 were synthesized from linearized cDNA using an mMESSAGE mMACHINE kit (commercially available from Life Technologies) vitro transcription. cRNA of KCNJ3 N83H or KCNJ3 WT and cRNA of wild type KCNJ5 were injected into Xenopus laevis oocytes together with cRNA of β and γ subunits of G protein, and incubated in an ND96 solution at 18° C. for 48 to 96 hours.
For the extracellular fluid, the pH of a test bath solution containing 40 mM potassium chloride, 50 mM sodium chloride, 3 mM magnesium chloride M, 0.15 mM niflumic acid, and 5 mMHEPES was adjusted to 7.4 with potassium hydroxide.
The whole cell current via the expressed KACh channel was measured by a two-electrode voltage clamp method using a GeneClamp 500 amplifier (commercially available from Molecular Devices). The compound (II) dissolved in DMSO, and a perfusate was prepared so that the final concentration was 0.001, 0.01, 0.03, 0.1, 1, and 10 μM. The perfusate containing the compound (II) with a low concentration was added when the amount of current was almost steady, and the amount of current was then recorded while replacing it with a perfusate with a high concentration in the same manner. When the recording was ended, Ba^2+ (3 mM) was added, and the intrinsic leak current was measured. The measured data was analyzed using Clampfit 10.2 (commercially available from Molecular Devices). The IC50 value was calculated using GraphPad Prism version 5.00 (commercially available from GraphPad Software).

Assay [4] deals with T3, KCNJ5 WT/W101C KACh channel (Homo sapiens, UniProt P48544+P48549, W101C).
T3 construct: expressed in transfected cells; host or cells: Xenopus laevis oocytes (cRNA injection)
T3 sequence (P48544 1-419 W101C): T1 sequence (P48544 1-419) with W101C
T3 sequence (P48544 1-419): T1 sequence (P48544 1-419)
T3 sequence (P48549 1-501): T1 sequence (P48549 1-501)
The experiment in a line: two-electrode voltage clamp, W101C heterozygous mutant KACh channel in Xenopus laevis oocytes. Type of assay: cell-based. As to conditions: 0.01, 0.1 and 1 μM. How it is done: In Xenopus laevis oocytes, in order to imitate autosomal dominant inheritance heterozygous, equimolar amounts of cRNAs of wild type KCNJ5 (KCNJ5 WT) and KCNJ5 W101C were injected together with cRNA of wild type KCNJ3 (KCNJ3 WT), the W101C heterozygous mutant KACh channel was expressed, electrodes were inserted, and the channel activity was confirmed by a two-electrode voltage clamp method.
The above human KCNJ5 cDNA clone (commercially available from Invitrogen) was amplified by PCR and subcloned it into a pCS2+ vector (commercially available from Addgene) to prepare a template, and the c.303G>C mutation providing KCNJ5 W101C was introduced by site-directed mutagenesis through PCR. […]
The whole cell current via the expressed KACh channel was measured by a two-electrode voltage clamp method using a GeneClamp 500 amplifier (commercially available from Molecular Devices). […] The perfusate containing the compound (I) with a low concentration was added when the current amplitude was almost steady, and the current amplitude was then recorded while replacing it with a perfusate with a high concentration in the same manner. When the recording was ended, Ba^2+ (3 mM) was added, and the intrinsic leak current was measured.

A word on the IC50: it is the midpoint of a concentration-inhibition curve.

Substitutions are numbered along the chain they refer to.

For Tertiapin-Q [reference compound], the “inhibitory action on the KCNJ3 WT KACh channel” value at KCNJ3 WT KACh channel [1] is “inhibitory action”. For the same compound, the “effect on sinus arrest / atrioventricular block caused by the N83H mutation” value in assay [2] was “did not improve sinus arrest”.

As for `CC1(C)Oc2cc([N+](=O)[O-])c(N)cc2[C@H](NCCc2ccccc2)[C@H]1O` [compound (II), (3R,4S)-6-amino-3,4-di hydro-2,2-dimethyl-7-nitro-4-(2-phenethylamino)-2H-1-benzopyran-3-ol], the IC50 at KCNJ3 WT KACh channel [3] (wild type, n=13, read-out: IC50 value, inhibition of whole cell current) stood at 0.23 ± 0.06 µM. In addition, in the assay on KCNJ3 WT zebrafish, the “effect on heart rate” value is reported as “appropriate increase in the heart rate without causing excess tachycardia”. For the same compound, the “effect on heart rate and bradyarrhythmia” value in assay [2] was “increasing the heart rate and improving bradyarrhythmia”. Besides, the IC50 at KCNJ3 N83H KACh channel (N83H mutant, n=14, p<0.01 vs wild type, read-out: IC50 value, inhibition of whole cell current) was found to be 0.05 ± 0.012 µM. Besides, at KCNJ3 N83H KACh channel, the “inhibition of the N83H mutant compared with the WT KACh channel” value was “higher affinity for the mutant KACh channel” and the “inhibitory effect on the KCNJ3 N83H KACh channel” value is listed as “concentration-dependent inhibitory effect”.

Turning to `Cc1cc(CO)nc2cc3c(cc12)OC(C)(C)[C@H](O)[C@H]3NCCc1ccccc1` [compound (I), (3R4S)-7-hydroxymethyl-2,2,9-trimethyl-4-(phenethylamino)-3,4-dihydro-2H-pyra no[2,3-g]quinoline-3-ol], the “inhibitory effect on the KCNJ5 WT/W101C KACh channel” value in assay [4] is reported as “concentration-dependent inhibitory effect”. Also, the “inhibitory effect on the KCNJ3 WT KACh channel” value against KCNJ3 WT KACh channel [3] (two-electrode voltage clamp) is on record as “exhibited the inhibitory effect”. In addition, in assay [2], the “effect on heart rate and bradyarrhythmia” value was “increasing the heart rate and improving bradyarrhythmia”; the “effect on sinus arrest / atrioventricular block caused by the N83H mutation” value is “improved the sinus arrest and atrioventricular block”. Moreover, at KCNJ3 N83H KACh channel, the “inhibition of the N83H mutant compared with the WT KACh channel” value was “stronger on N83H than WT” and the “inhibitory effect on the KCNJ3 N83H KACh channel” value is recorded as “exhibited the inhibitory effect”.
